From patent publication US9422238B2, “ICMT inhibitors” (National University of Singapore, priority 2012, dated 2016)
Like-named read-outs stand apart in the source and are kept apart here.

Experiments:
[1] = test system: PC3 Prostrate cancer cells; assay: Antiproliferative activity / cell viability (MTS, 72 h); format: cell-based, human
Procedure: (§1) The relative number of the live cells was determined using the CellTiter® 96 AQueous One Solution Cell Proliferation Assay (Promega). Determinations were made in duplicates or triplicates.

[2] = test system: MDA-MB-231 human breast cells; assay: as above
Procedure: as §1
Human breast cancer MDA-MB231, liver cancer HepG2 and lung fibroblast cells were purchased from ATCC (Rockville, Md.). MDA-MB231 cells and IMR-90 cells were grown in DMEM (Sigma Aldrich, Singapore) and EMEM (Sigma Aldrich, Singapore) respectively at 37° C., 5% CO2. DMEM was supplemented with 10% fetal bovine serum (Invitrogen, heat treated at 65 deg C., 30 min), 50 units/L penicillin-G and 50 μg/mL streptomycin. EMEM was supplemented with 10% fetal bovine serum (heat treated as above), 100 mg/L penicillin-G and 100 μg/mL streptomycin.
Cell viability was assessed using CellTitre 96® Aqueous One Solution (Promega, Madison, Wis.) containing the tetrazolium salt 3-(4,5-dimethylthiazol-2-yl)-5-(3-carboxymethoxyphenyl)-2-(4-sulfophenyl)-2H-tetrazolium (MTS). […] Final concentration of DMSO per well was maintained at 0.5% v/v. […] Cell viability was determined from the expression:
The plot was constrained to ≧0 and ≦100%. At least 3 independent determinations of IC50 were made using two different stock solutions of test compound.

[3] = biological target: T1, Isoprenylcysteine carboxyl methyltransferase (Icmt) (Homo sapiens, UniProt O60725); assay: Icmt inhibition, scintillation proximity assay with BFC and [3H]SAM; format: biochemical; settings: for IC50: Table 3, mean of two or more determinations (SD), read-out: IC50 Icmt
T1 construct: made in house; host or cells: Sf9 (Spodoptera frugiperda) insect cells; membrane preparation provided by Prof PJ Casey (Duke University / Duke-NUS)
Procedure: Isoprenylcysteine carboxyl methyltransferase (Icmt) was provided by Prof PJ Casey of Duke University, NC. S-Adenosylmethionine (SAM), magnesium chloride Hexahydrate (MgCl2), tartrazine, 4-(2-hydroxyethyl)-1-piperazineethanesulfonic acid (HEPES), dimethyl sulfoxide (DMSO) and dithiotreitol (DTT) were purchased from Sigma (Mo, USA). [^3H] S-Adenosylmethionine, [^3H] Biotin and Streptavidin PVT SPA Beads were purchased from PerkinElmer (Waltham, Mass.). Assays were performed in black small volume 384 well microtitre plates from PerkinElmer.
Stocks of Icmt membrane protein (30 μg/μL) stored at −80° C. were thawed at 37° C. and placed on ice. The Icmt membrane protein was diluted in assay buffer (70 mM HEPES, 100 mM NaCl, 5 mM Mg Cl2 and 3 mM DTT, pH 7.5) to a 0.03 μg/μL working concentration and added to the wells of a microtitre plate (5 μl/well). To each wells 20 μl of the reaction buffer was added. The reaction was initiated with the addition of 5 μL of substrate solution containing BFC (6 μM), SAM (3 μM) and 30 μCi/mL [^3H] SAM (all of these reagents were stored at −20° C., SAM reagents thawed on ice, BFC thawed at RT). The plate was incubated at 37° C. for 30 minutes. The reaction was stopped with the addition of 15 μL of stop solution containing SAM (150 μM) and Streptavidin SPA beads (20 mg/mL). Following overnight incubation at ambient temperature radioactivity was counted on a Microbeta Trilux™ (Perkin Elmer, Turku, Finland).
Sf9 (Spodoptera frugiperda ovarian) membranes containing recombinant Icmt were provided by Prof PJ Casey (Duke University, NC and Duke-NUS Graduate Medical School). S-Adenosylmethionine (SAM), magnesium chloride hexahydrate, tartrazine, 4-(2-hydroxyethyl)-1-piperazineethanesulfonic acid (HEPES) and dithiotreitol (DTT) were purchased from Sigma (Mo, USA). [^3H] S-Adenosylmethionine, [^3H] biotin and streptavidin PVT SPA Beads were purchased from PerkinElmer (Waltham, Mass.). Biotinylated farnesylcysteine was synthesized as described in an earlier report. Assays were performed in black 384-well microtitre plates from PerkinElmer.
A vial of Icmt membrane protein (30 μg/μL) stored at −80° C. was thawed at 37° C. and placed on ice. The protein was diluted in assay buffer (70 mM HEPES, 100 mM NaCl, 5 mM MgCl2, 3 mM DTT, pH 7.5) to 0.03 μg/μL and aliquots were added to each well (5 μL/well), followed by 20 μL of the assay buffer. The reaction was initiated by adding 5 μL of a solution containing biotinylated BFC (6 μM), SAM (3 μM) and 30 μCi/mL [^3H] SAM. These reagents were stored at −20° C. and thawed on ice (SAM, [^3H] SAM) or at room temperature (BFC). The plate was incubated at 37° C. for 30 minutes after which the reaction was quenched by adding 15 μL of a solution comprising SAM (150 μM) and streptavidin SPA beads (20 mg/mL). After overnight incubation at ambient temperature, radioactivity was counted (Microbeta Trilux™, Perkin Elmer, Turku, Finland). The degree of inhibition was assessed from the radioactivity obtained in presence of test compound compared to that obtained from the control sample […]. Two independent determinations were made for each test compound.

[4] = Homo sapiens, PC-3M, Table 3, 72 h, mean (SD), read-out: IC50 PC3
[5] = Homo sapiens, MDA-MB-231, 72 h, read-out: IC50MDA-MB-231 (μM)
[6] = Table 3, 72 h, mean (SD), read-out: IC50 PC3
[7] = read-out: IC50MDA-MB-231, Table 3, 72 h, mean (SD)
[8] = Homo sapiens, Table 5, read-out: IC50 (μM) PC 3
[9] = Homo sapiens, MDA-MB-231, read-out: IC50 (μM) MDA-MB231

T1 sequence (O60725 whole entry, species assumed): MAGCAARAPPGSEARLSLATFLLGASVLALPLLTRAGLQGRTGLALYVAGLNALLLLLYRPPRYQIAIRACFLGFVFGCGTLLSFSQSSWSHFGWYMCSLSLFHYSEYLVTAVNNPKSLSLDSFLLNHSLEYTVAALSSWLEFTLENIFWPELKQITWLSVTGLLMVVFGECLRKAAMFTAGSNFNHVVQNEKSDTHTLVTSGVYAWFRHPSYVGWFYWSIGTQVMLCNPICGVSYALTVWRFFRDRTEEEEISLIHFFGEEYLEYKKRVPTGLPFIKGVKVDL

SMILES	IC50 [1, 4]	IC50 [2, 5]	IC50 [3]	IC50 [1, 8]	IC50 [2, 9]	further results
CCCCCCCCn1c2c(c3cc(-c4ccc(S(C)(=O)=O)cc4)ccc31)CN(C)CC2 [Compound 306, 2-methyl-8-(4′-(methylsulfonyl)phenyl)-5-n-octyl-1,2,3,4-tetrahydropyrido[4,3-b]indole]	5.38 µM	4.6 µM				
CCCCCCCCn1cc(CN(CC)CC)c2cc(-c3cccc(OC(F)(F)F)c3)ccc21 [Compound 8-6]						IC50 [1, 6]: 11.2 µM; IC50 [2, 7]: 7.17 µM
CCCCCCCCn1c2c(c3cc(-c4cnc(N)nc4)ccc31)CN(C(N)=O)CC2 [cpd 319]				9.43 ± 3.85 µM		
CCCCCCCCn1c2c(c3cc(-c4ccnc(F)c4)ccc31)CNCC2 [Compound 315, 8-(2′-fluoropyridin-4-yl)-5-n-octyl-1,2,3,4-tetrahydro-1H-pyrido[4,3-b]indole]						IC50 [1, 6]: 7.69 µM; IC50 [2, 7]: 4.59 µM
CCCCCCCCn1c2c(c3cc(F)ccc31)CN(Cc1ccc(O)cc1)CC2 [Compound 205, 8-fluoro-2-(4′-hydroxybenzyl)-5-n-octyl-1,2,3,4-tetrahydropyrido[4,3-b]indole]	10.5 µM	10.5 µM		10.5 ± 0.28 µM	10.5 ± 0.08 µM	
CCCCCCCCn1cc(CC(N)=O)c2cc(-c3cnc(N)nc3)ccc21 [cpd 512]				> 50 µM	> 50 µM	
CCCCCCCCn1c2c(c3cc(-c4cnc(N)nc4)ccc31)CN(C(C)C)CC2 [cpd 474]				9.32 ± 0.65 µM	9.17 ± 0.54 µM	
CCCCCCCCn1c2c(c3cc(-c4cnc(N)nc4)ccc31)CN(S(C)(=O)=O)CC2 [cpd 488]					27.4 µM	
CCCCCCCCn1c2c(c3cc(F)ccc31)CN(C)CC2 [Compound 199, 8-fluoro-2-methyl-5-n-octyl-1,2,3,4-tetrahydropyrido[4,3-b]indole]	15.5 µM	19.2 µM				
CCCCCCCCn1c2c(c3cc(-c4ccc(S(C)(=O)=O)cc4)ccc31)CN(C(N)=O)CC2 [cpd 324]				8.88 ± 0.62 µM		
CCCCCCCCn1c2c(c3cc(-c4ccc(S(C)(=O)=O)cc4)ccc31)CNCC2 [Compound 314, 8-(4′-(methylsulfonyl)phenyl)-5-n-octyl-1,2,3,4-tetrahydropyrido[4,3-b]indole]	2.92 µM	2.1 µM				
CCCCCCCCn1c2c(c3cc(-c4cnc(N)nc4)ccc31)CNCC2 [Compound 309, 8-(2′-amino-pyrimidin-5-yl)-5-n-octyl-1,2,3,4-tetrahydropyrido[4,3-b]indole]	4.44 µM	2.72 µM				
CCCCCCCCn1cc(CN(CC)CC)c2cc(-c3cccc(O)c3)ccc21 [Compound 8-21, 3-(3-Diethylaminomethyl-1-octyl-1H-indol-5-yl)-phenol]	17.4 µM	14.8 µM	5.43 µM			
CCCCCCCCn1cc(CC(N)=O)c2cc(-c3ccnc(F)c3)ccc21 [cpd 513]				25.6 ± 3.48 µM	26.1 ± 0.41 µM	
CCCCCCCCn1c2c(c3cc(-c4cnc(N)nc4)ccc31)CN(CCO)CC2 [cpd 510]				3.97 ± 0.42 µM	3.42 ± 0.72 µM	
CCCCCCCCn1c2c(c3cc(-c4cnc(N)nc4)ccc31)CN(C(=O)OCC)CC2 [cpd 480]				21.3 µM	17 µM	
CCCCCCCCn1c2c(c3cc(-c4cccc(C)c4)ccc31)CN(C(C)C)CC2 [Compound 260, 2-isopropyl-8-m-tolyl-5-n-octyl-1,2,3,4-tetrahydropyrido[4,3-b]indoles]	9.69 µM	7.38 µM	8.3 µM	9.69 ± 1.84 µM	7.38 ± 0.48 µM	
CC(C)=CCn1c2c(c3cc(-c4cccc(C)c4)ccc31)CN(Cc1ccc(O)cc1)CC2 [Compound 300, 2-(4′-hydroxybenzyl)-5-isoprenyl-8-m-tolyl-1,2,3,4-tetrahydropyrido[4,3-b]indoles]	13.3 µM	9.38 µM		13.3 ± 5.7 µM	9.38 ± 0.92 µM	
CCCCCCCCn1c2c(c3cc(-c4cccc(C)c4)ccc31)CN(Cc1ccccc1)CC2 [cpd 214]				10.9 ± 2.31 µM	8.6 ± 1.68 µM	
CCCCCCCCn1c2c(c3cc(-c4cccc(C)c4)ccc31)CN(C)CC2 [Compound 235, 2-methyl-8-m-tolyl-5-n-octyl-1,2,3,4-tetrahydropyrido[4,3-b]indoles]	7.58 µM	9.18 µM	10.3 µM			times less potent as an Icmt inhibitor than 8-1 ([3]; ratio of IC50 Icmt): ~5
CCCCCCCCn1c2c(c3cc(-c4cccc(C)c4)ccc31)CN(C(N)=O)CC2 [cpd 321]				10.5 ± 3.08 µM		
CCCCCCCCn1c2c(c3cc(-c4ccnc(F)c4)ccc31)CN(C(N)=O)CC2 [cpd 323]				10.2 ± 3.63 µM		
CCCCCCCCn1cc(C(=O)C(N)=O)c2cc(-c3cccc(C)c3)ccc21 [cpd 273]				16.7 ± 1.68 µM	> 50 µM	
CCCCCCCCn1c2c(c3cc(-c4cccc(C)c4)ccc31)CN(Cc1ccc(O)cc1)CC2 [Compound 240, 2-(4′-hydroxybenzyl)-8-m-tolyl-5-n-octyl-1,2,3,4-tetrahydropyrido[4,3-b]indoles]						IC50 [1, 6]: 10.2 µM; IC50 [2, 7]: 14.8 µM
CCCCCCCCn1c2c(c3cc(-c4cccc(C)c4)ccc31)CN(C(=O)OCC)CC2 [cpd 481]				30.1 µM	25.9 µM	
CCCCCCCCn1c2c(c3cc(-c4cnc(N)nc4)ccc31)CN(CC)CC2 [cpd 490]					5.85 µM	

More lines, main results first:

IC50 [1, 4]	IC50 [2, 5]	IC50 [3]	IC50 [1, 8]	IC50 [2, 9]	SMILES	further results
9.66 µM	6.69 µM	1.28 µM			CCCCCCCCn1cc(CN(CC)CC)c2cc(-c3ccccc3C(F)(F)F)ccc21 [Compound 8-4]	
		2.61 µM			CCCCCCCCn1cc(CN(CC)CC)c2cc(-c3cccc(C(F)(F)F)c3)ccc21 [Compound 8-5]	
		1.61 µM			CCCCCCCCn1cc(CN(CC)CC)c2cc(-c3cccc(F)c3)ccc21 [Compound 8-3]	
6.19 µM	7.72 µM	2.45 µM			CCCCCCCCn1cc(CN(CC)CC)c2cc(-c3ccc(C#N)cc3)ccc21 [Compound 8-20, 4-(3-Diethylaminomethyl-1-octyl-1H-indol-5-yl)-benzonitrile]	
5.92 µM	3.95 µM	2.26 µM			CCCCCCCCn1cc(CN(CC)CC)c2cc(-c3cnc(C#N)nc3)ccc21 [Compound 8-19, 5-(3-Diethylaminomethyl-1-octyl-1H-indol-5-yl)-pyrimidine-2-carbonitrile]	
		0.96 µM			CCCCCCCCn1cc(CN(CC)CC)c2cc(-c3cnccc3F)ccc21 [Compound 8-8, Diethyl-[5(4-Fluoro-pyrdin-3yl)-1-octyl-1H-indol-3ylmethyl]-amine]	IC50 [1, 6]: 5.88 µM; IC50 [2, 7]: 5.14 µM
		2.56 µM			CCCCCCCCn1cc(CN(CC)CC)c2cc(-c3ccccc3F)ccc21 [Compound 8-2]	
